Source: ChEMBL document CHEMBL1156699, “C-terminal constrained phenylalanine as a pharmacophoric unit in peptide-based proteasome inhibitors” (Eur J Med Chem, 2008)
Residues, ends and D or L forms follow the SMILES beside them. *: point of attachment. Cbz = O=C(OCc1ccccc1)*

Tests used:
[1] = Inhibition of trypsin like 20S proteasome activity in lymphoblastoid cells; format: cell-based
[2] = Inhibition of caspase like 20S proteasome activity in lymphoblastoid cells; format: cell-based
[3] = Inhibition of chymotrypsin like 20S proteasome activity in lymphoblastoid cells; format: cell-based
[4] = In vivo inhibition of trypsin like 20S proteasome; format: organism-based
[5] = In vivo inhibition of caspase like 20S proteasome; format: organism-based
[6] = In vivo inhibition of chymotrypsin like 20S proteasome; format: organism-based
[7] = Half life in human plasma after 360 mins; format: ADME, cell-free

IC50 [1]	IC50 [2]	IC50 [3]	IC50 [4]	IC50 [5]	IC50 [6]	half-life [7]	SMILES
3670 nM	2960 nM	> 10 µM					CCOC(=O)/C=C/[C@H]1Cc2ccccc2CN1C(=O)[C@H](CO)NC(=O)[C@@H](NC(=O)c1cccc(O)c1C)C(C)C
79 nM	> 10000 nM	> 10 µM	92 nM	> 10 µM	> 10000 nM	> 360 min	CCOC(=O)/C(=C/c1ccccc1)NC(=O)[C@H](CC(C)C)NC(=O)[C@H](CO)NC(=O)[C@@H](NC(=O)c1cccc(O)c1C)C(C)C
5840 nM	2140 nM	2.06 µM					CCOC(=O)/C=C/[C@@H]1Cc2ccccc2CN1C(=O)[C@H](CC(C)C)NC(=O)[C@H](CC(C)C)NC(=O)c1cccc(O)c1C
1320 nM	> 10000 nM	0.894 µM	1820 nM	> 10 µM	1040 nM	> 360 min	CCOC(=O)/C(=C/c1ccccc1)NC(=O)[C@H](CC(C)C)NC(=O)[C@H](CC(C)C)NC(=O)[C@H](CC(C)C)NC(=O)c1cccc(O)c1C
> 10000 nM	2500 nM	> 10 µM					CCOC(=O)/C=C/[C@@H]1Cc2ccccc2CN1C(=O)[C@H](CC(C)C)NC(=O)[C@H](CO)NC(=O)[C@@H](NC(=O)c1cccc(O)c1C)C(C)C
> 10000 nM	1480 nM	3.73 µM		2.05 µM		> 360 min	CCOC(=O)/C=C/[C@H]1Cc2ccccc2CN1C(=O)[C@H](CC(C)C)NC(=O)[C@H](CC(C)C)NC(=O)c1cccc(O)c1C
> 10000 nM	1730 nM	5.29 µM					CCOC(=O)/C=C/[C@@H]1Cc2ccccc2CN1C(=O)[C@H](CC(C)C)NC(=O)[C@H](CC(C)C)NC(=O)[C@H](CC(C)C)NC(=O)c1cccc(O)c1C
7950 nM	2350 nM	> 10 µM					CCOC(=O)/C=C/[C@H]1Cc2ccccc2CN1C(=O)[C@H](CC(C)C)NC(=O)[C@H](CO)NC(=O)[C@@H](NC(=O)c1cccc(O)c1C)C(C)C
1760 nM	> 10000 nM	1.19 µM	2180 nM	> 10 µM	1550 nM	> 360 min	CCOC(=O)/C(=C/c1ccccc1)NC(=O)[C@H](CC(C)C)NC(=O)[C@H](CC(C)C)NC(=O)c1cccc(O)c1C
183 nM	> 10000 nM	> 10 µM	231 nM	> 10 µM	> 10000 nM	> 360 min	CCOC(=O)/C(=C/c1ccccc1)NC(=O)[C@H](CO)NC(=O)[C@@H](NC(=O)c1cccc(O)c1C)C(C)C
33 nM	> 10000 nM	> 10 µM	50 nM	> 10 µM	> 10000 nM	> 360 min	CCOC(=O)/C=C/[C@H](CC(C)C)NC(=O)[C@H](CO)NC(=O)[C@@H](NC(=O)c1cccc(O)c1C)C(C)C
> 10000 nM	952 nM	8.45 µM		1.41 µM		> 360 min	CCOC(=O)/C=C/[C@H]1Cc2ccccc2CN1C(=O)[C@H](CC(C)C)NC(=O)[C@H](CC(C)C)NC(=O)[C@H](CC(C)C)NC(=O)c1cccc(O)c1C
2790 nM	3920 nM	> 10 µM					CCOC(=O)/C=C/[C@@H]1Cc2ccccc2CN1C(=O)[C@H](CO)NC(=O)[C@@H](NC(=O)c1cccc(O)c1C)C(C)C

SMILES	IC50 [1]	IC50 [2]	IC50 [3]	IC50 [4]	IC50 [5]	IC50 [6]	half-life [7]
CC(C)C[C@@H](C=O)NC(=O)[C@H](CC(C)C)NC(=O)[C@H](CC(C)C)NC(=O)OCc1ccccc1 [MG-132] (Cbz-Leu-Leu-Leu-aldehyde)	1080 nM	> 10000 nM	0.002 µM				
CC[C@H](C)[C@H](NC(=O)[C@H]([C@@H](C)CC)N(C)C(C)=O)C(=O)N[C@H](C(=O)N[C@@H](CC(C)C)C(=O)[C@@]1(C)CO1)[C@@H](C)O [EPOXOMYCIN]			0.005 µM				
